Residues, ends and D or L forms follow the SMILES beside them. *: point of attachment. pNA = O=[N+]([O-])c1ccc(N*)cc1; Bz = O=C(c1ccccc1)*
What was measured:
factor Xa (FXa) = molecular target: T1, factor Xa (FXa) (Homo sapiens, UniProt P00742); assay: Substrate specificity test: reaction of substrates with FXa, absorbance of liberated chromogen; format: biochemical; conditions: for absorbance (O.D.), FXa: So = 0.4 mM/l, 5 min reaction at 37° C.
T1 construct: purchased Bohringer Mannheim, GmbH, West Germany
T1 sequence (P00742 235-488 limits assumed): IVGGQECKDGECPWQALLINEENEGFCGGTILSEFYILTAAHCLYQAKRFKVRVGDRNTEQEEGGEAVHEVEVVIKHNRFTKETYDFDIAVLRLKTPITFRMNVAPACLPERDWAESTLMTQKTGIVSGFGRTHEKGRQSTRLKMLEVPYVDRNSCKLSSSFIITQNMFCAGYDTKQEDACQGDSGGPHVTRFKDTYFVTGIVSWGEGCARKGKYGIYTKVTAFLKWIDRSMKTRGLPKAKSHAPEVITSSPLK
T1 sequence (P00742 41-179 partner limits assumed): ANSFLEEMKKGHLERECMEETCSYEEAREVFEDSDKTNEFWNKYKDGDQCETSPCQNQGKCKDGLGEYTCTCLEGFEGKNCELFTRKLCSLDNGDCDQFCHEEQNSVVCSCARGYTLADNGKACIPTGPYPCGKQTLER
Experimental: (§1) The specificities of newly synthesized substrates were tested by reacting them with various enzymes as follows.
(§2) (1) Substrate solution: 2 mM/liter of H2 O
(§3) (2) Buffer solutions: The concentrations of each of tris(hydroxymethyl)aminomethane [hereinafter referred to as "Tris"], NaCl and CaCl2, as well as pH were specified as follows for the respective enzymes. […]
(§4) (4) Reaction Stopper (PNA): 10%-acetic acid
(§5) (5) Color forming agent (CHA): Pentacyanoamineferroate
(§6) (6) Method of determination:
(§7) 0.3 Milliter buffer solution and 0.1 ml of enzyme reagent were collected in a hard glass test tube of which surface being treated with silicone, or a plastic test tube and preheated in a thermostat at 37° C. for 5 minutes. Precisely 5 minutes after the reaction was started, 2.0 ml of reaction stopper solution or reactionterminating color forming reagent was added to terminate the enzyme reaction. The reaction mixture was allowed to stand at 37° C. for 10 minutes and then the adsorbance at 405 nm or 700 nm was measured.

kallikrein (KL) = molecular target: T2, kallikrein (KL) (Sus scrofa, UniProt P00752); assay: Substrate specificity test: reaction of substrates with kallikrein; format: biochemical, Swine; conditions: So = 0.4 mM/l, 5 min reaction at 37° C.
T2 construct: purchased Sigma Chemical Co., U.S.A
T2 sequence (P00752 8-246): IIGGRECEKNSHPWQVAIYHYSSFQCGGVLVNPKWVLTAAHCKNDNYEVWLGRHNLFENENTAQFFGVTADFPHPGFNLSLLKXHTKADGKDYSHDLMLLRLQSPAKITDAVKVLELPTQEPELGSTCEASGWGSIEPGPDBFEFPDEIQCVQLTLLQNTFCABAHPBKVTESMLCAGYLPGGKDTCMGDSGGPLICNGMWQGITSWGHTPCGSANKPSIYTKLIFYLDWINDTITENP
Experimental: as §1, §2, §3, §4, §5, §6, §7

thrombin (TH) = molecular target: T3, thrombin (TH) (Bos taurus, UniProt P00735); assay: Substrate specificity test: reaction of substrates with thrombin; format: biochemical, Bovine; conditions: for absorbance (O.D.), TH: So = 0.4 mM/l, 5 min reaction at 37° C.
T3 construct: proteolyze factor II (prothrombin) at two points of peptide chain to turn it into factor IIa (thrombin); purchased Mochida Pharmaceutical Co., Ltd., Japan
Experimental: as §1, §2, §3, §4, §5, §6, §7

urokinase (UK) = molecular target: T4, urokinase (UK) (Homo sapiens, UniProt P00749); assay: Substrate specificity test: reaction of substrates with urokinase; format: biochemical; conditions: for absorbance (O.D.), UK: So = 0.4 mM/l, 5 min reaction at 37° C.
T4 construct: purchased Mochida Pharmaceutical Co., Ltd., Japan
Experimental: as §1, §2, §3, §4, §5, §6, §7

plasmin (PL) = molecular target: T5, plasmin (PL) (Homo sapiens, UniProt P00747); assay: Substrate specificity test: reaction of substrates with plasmin; format: biochemical; conditions: for absorbance (O.D.), PL: So = 0.4 mM/l, 5 min reaction at 37° C.
T5 construct: Plasmin Human; purchased The Green Cross Corporation, Japan
T5 sequence (P00747 581-810 limits assumed): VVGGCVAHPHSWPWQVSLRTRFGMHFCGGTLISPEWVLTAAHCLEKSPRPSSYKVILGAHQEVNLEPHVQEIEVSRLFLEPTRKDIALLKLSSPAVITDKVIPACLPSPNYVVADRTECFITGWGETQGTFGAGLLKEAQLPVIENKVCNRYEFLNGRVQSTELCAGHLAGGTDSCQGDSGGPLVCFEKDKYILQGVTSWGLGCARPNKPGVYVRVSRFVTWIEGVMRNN
T5 sequence (P00747 97-580 partner limits assumed): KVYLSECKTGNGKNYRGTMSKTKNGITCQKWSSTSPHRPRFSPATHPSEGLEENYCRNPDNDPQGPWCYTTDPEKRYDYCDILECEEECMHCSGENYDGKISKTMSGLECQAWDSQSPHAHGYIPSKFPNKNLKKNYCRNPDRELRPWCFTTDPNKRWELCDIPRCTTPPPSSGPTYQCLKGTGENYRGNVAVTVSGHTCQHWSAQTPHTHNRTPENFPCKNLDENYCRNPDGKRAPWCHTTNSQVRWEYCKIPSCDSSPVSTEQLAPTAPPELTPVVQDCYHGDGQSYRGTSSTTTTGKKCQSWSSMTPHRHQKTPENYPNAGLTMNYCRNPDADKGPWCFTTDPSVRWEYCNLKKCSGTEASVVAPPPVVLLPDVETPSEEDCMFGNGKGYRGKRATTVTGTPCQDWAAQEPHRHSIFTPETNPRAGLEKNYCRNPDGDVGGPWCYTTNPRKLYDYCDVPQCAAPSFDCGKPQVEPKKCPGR
Experimental: as §1, §2, §3, §4, §5, §6, §7

Solubility in water = format: physicochemical
[1] = 700 nm (CHA substrates, pentacyanoamineferroate)
[2] = PS-2000N given as 100, initial substrate concentration So = 0.4 mmol

| absorbance (O.D.), FXa (factor Xa (FXa); [1]) | absorbance (O.D.), KL (kallikrein (KL); [1]) | absorbance (O.D.), TH (thrombin (TH); [1]) | absorbance (O.D.), UK (urokinase (UK); [1]) | absorbance (O.D.), PL (plasmin (PL); [1]) | SMILES | further results |
| --- | --- | --- | --- | --- | --- | --- |
| 0.314 O.D. | 0.0 O.D. | 0.006 O.D. | 0.004 O.D. | 0.005 O.D. | N=C(N)NCCC[C@H](NC(=O)CNC(=O)[C@@H](CCCCN)NC(=O)OCc1ccccc1)C(=O)Nc1ccc(O)c(C(=O)O)c1 [PS-2001, ZD-LysGlyArgCHA] |  |
|  |  |  |  |  | CC[C@H](C)[C@H](NC(=O)c1ccccc1)C(=O)N[C@@H](CCC(=O)O)C(=O)NCC(=O)N[C@@H](CCCNC(=N)N)C(=O)Nc1ccc([N+](=O)[O-])cc1 [S-2222, Bz-Ile-Glu-Gly-Arg-PNA, reference compound] (Bz-IEGR-pNA) | absorbance (O.D.), FXa (factor Xa (FXa); 405 nm (PNA substrates)): 0.669 O.D.; Relative reactivity to enzymes, Fxa (factor Xa (FXa); [2]): 57%; absorbance (O.D.), KL (kallikrein (KL); 405 nm (PNA substrates)): 0.013 O.D.; absorbance (O.D.), TH (thrombin (TH); 405 nm (PNA substrates)): 0.018 O.D.; Relative reactivity to enzymes, TH (thrombin (TH); [2]): 31%; absorbance (O.D.), UK (urokinase (UK); 405 nm (PNA substrates)): 0.035 O.D.; Relative reactivity to enzymes, UK (urokinase (UK); [2]): 40%; absorbance (O.D.), PL (plasmin (PL); 405 nm (PNA substrates)): 0.011 O.D.; Relative reactivity to enzymes, PL (plasmin (PL); [2]): 16% |
| 0.426 O.D. | 0.0 O.D. | 0.009 O.D. | 0.003 O.D. | 0.004 O.D. | CC(=O)NCCCC[C@@H](NC(=O)OCc1ccccc1)C(=O)NCC(=O)N[C@@H](CCCNC(=N)N)C(=O)Nc1ccc(O)c(C(=O)O)c1 [PS-2002, ZD-Lys(Ac)GlyArgCHA] |  |
| 0.292 O.D. | 0.0 O.D. | 0.006 O.D. | 0.0 O.D. | 0.0 O.D. | CN(CC(=O)N[C@@H](CCCNC(=N)N)C(=O)Nc1ccc(O)c(C(=O)O)c1)C(=O)[C@@H](CCCCN)NC(=O)OCc1ccccc1 [PS-2004, ZD-LysSarArgCHA] |  |
|  |  |  |  |  | CC[C@H](C)[C@H](NC(=O)c1ccccc1)C(=O)N[C@@H](CCC(=O)O)C(=O)NCC(=O)N[C@@H](CCCN=C(N)N)C(=O)Nc1ccc([N+](=O)[O-])cc1 [S-2222, Bz-Ile-Glu-Gly-Arg-PNA, reference compound] (Bz-IEGR-pNA) | water solubility (Solubility in water): about 6 mmol/1 |

— patent US4622389A, “Novel substrate for determining the activity of blood coagulation factor Xa (Stuart-Prower factor)” (Nitto Poseki Co., Ltd., priority 1984, dated 1986)
